# Assay results published in US20190060298A1, “NEW DRUG FOR THE TREATMENT AND/OR PREVENTION OF DEPRESSIVE DISORDERS” (SORBONNE UNIVERSITE, priority 2013, published 2019).
# System: oxidative stress
# Assay: Oxidative stress state in hippocampus after chronic social defeat
# Type: in vivo, Sprague-Dawley rats
# Settings: vulnerable (V) rats; 288 μmol/kg/day via osmotic mini-pump for 15 days from D11; measured D31
# Experimental: The social-defeat procedure (CSD) (D-3 to DO) was performed as previously described (see Becker et al., 2001; Blugeot et al., 2011).
# Briefly, this procedure involved subjecting the same pairs of residents and intruders to four daily conditioning sessions. The 45-min conditioning sessions were divided into two consecutive periods. During period I (30 min), intruders were placed individually in a protective cage within the resident animal's home cage. The protective cage allowed unrestricted visual, auditory, and olfactory contact with the resident but prevented close physical contact. […]
# The animals were decapitated and the left hippocampus was homogenized in ice-cold buffer (20 mM Hepes pH 7.2, 1 mM EGTA, 210 mM mannitol, 70 mM sucrose). […] Catalase and total SOD activities were immediately determined with commercially available kits (Cayman Chemical, Ann Arbor, Mich., USA), in accordance with the manufacturer's instructions. SOD and catalase specific activities are expressed as units per mg of hippocampus and as nmoles of formaldehyde formed per minute per mg of hippocampal tissue, respectively. […]
# For the TBARS assay, protease inhibitors (50 μl/ml), DOC (1%), SDS (0.1%) and Triton® X-100 (0.5%) were added immediately in ice-cold buffer. […] TBARS concentration was calculated from an MDA standard curve and normalized. […]
structure (smiles),measurement,value
"CC1(C)CC(O)CC(C)(C)N1[O] [TEMPOL, 4-hydroxy-2,2,6,6-tetramethylpiperidin-1-oxyl]",oxidative stress,decreased the oxidative stress in V animals
